# What was measured:
# [1] = tested on: TRPV1; experiment: TRPV1 protein in human aortic endothelial cells (immunoblotting); assay type: cell-based; settings: HAECs; 20 μM; 15 min; normalized with α-tubulin
# Method: (§1) Protein samples were separated and resolved by sodium dodecylsulfate polyacrylamide gel electrophoresis (SDS-PAGE) and electrotransferred onto a polyvinylidene difluoride (PVDF) membrane. The membrane was incubated with a primary antibody at 4° C. overnight, and then incubated with a horseradish peroxidase (HRP)-conjugated secondary immunoglobulin G (IgG) antibody; immunoreactive bands were visualized with PerkinElmer enhanced chemiluminescent reagents.
# (§2) TRPV1 is reportedly present in ECs of arteries. To validate the expression of TRPV1 in the endothelium, the TRPV1 protein of human aortic ECs (HAECs) was detected using immunoblotting; the method of Western Blot Analysis has been stated in Example 4. F-RUT treatment (20 μM) for 15 min increased TRPV1 protein amounts two-fold compared to the control group after normalization with α-tubulin levels (FIG. 4). The effect of F-RUT on the phosphorylation of eNOS in HAECs is further examined because NO production is consequently regulated by the phosphorylation of eNOS.
# [2] = tested on: KLF10 KO mice; experiment: Blood-air-barrier thickness by TEM in OVA/Alum-challenged KLF10 KO mice; assay type: in vivo; settings: KLF-10 KO mice; oral; OVA/Alum group 586 nm, control group 348 nm; FIG. 6
# Method: Blood-Air-Barrier (alveolar-capillary membrane), gas exchanging region of the lungs, was measured to perform the lung function. After the KLF-10 KO mice were challenged with OVA/Alum and oral administration of RUT or F-RUT, the lung was harvested to measure the thickness of blood-air-barrier by TEM. The average thickness of blood-air-barrier was significant increased in OVA/Alum group (586 nm compared to 348 nm in control group) and reversed by RUT or F-RUT (418 and 393 nm, respectively), see FIG. 6.
# [3] = tested on: RAW264.7; experiment: MTT cell viability assay, RAW264.7; assay type: cell-based
# Method: (§3) An MTT assay to test cell viability was performed based on the conversion of the yellow tetrazolium salt to the purple formazan product. Cells (10^4 cells/well) were grown in a 96-well plate supplemented with standard culture medium. Cells were treated with RUT and F-RUT (0-20 μM) for 24 h. An MTT stock solution (5 mg of MTT/mL of phosphate-buffered saline; PBS) was added to the growing cultures for 2 h. The absorbance was measured with a spectrophotometer at 560 nm. DMSO alone was measured as a reading control. Data were reported as the mean±SEM values of five independent determinations.
# [4] = tested on: NF-κB; experiment: NF-κB-dependent luciferase reporter assay in LPS-induced macrophages; assay type: cell-based; settings: 0-2.5 μM; LPS 40 ng/mL 24 h; FIG. 2(b)
# Method: RAW264.7 macrophages were seeded in a 96-well plate with DMEM. Then, cells were transfected with the pGL4.32 [luc2P/NF-κB-RE/Hygro] (Promega, Madison, Wis., USA) plasmid reporter gene using TurboFect Transfection Reagent (Fermentas, Glen Burnie, Md., USA). At 24 h after transfection, cells were treated with LPS (40 ng/mL) and F-RUT for 24 h in serum-free medium. Then the luciferase activity was detected by the luminescence measured in a luminescence microplate reader (Thermo Varioskan Flash, Waltham, Mass., USA) using a ONE-Glo luciferase assay kit (Promega). Luciferase activities were normalized to protein concentrations.
# [5] = tested on: eNOS; experiment: eNOS phosphorylation in human aortic endothelial cells (immunoblotting); assay type: cell-based; settings: HAECs; 20 μM; 15 min; normalized with total eNOS
# Method: as §1, §2
# [6] = tested on: A2780 cells; experiment: Transwell Matrigel cell invasion assay; assay type: cell-based; settings: 0-2.5 μM, 24 h, FIG. 3(b)
# Method: A2780 cell invasion was evaluated using 24-well transwell inserts (8-μm-pore filters, Merck Millipore) individually coated with Matrigel (BD Biosciences, Bedford, Mass., USA). A2780 cells (2×10^4 cells in each well) were cultured for 24 h with serum-free minimum essential medium (MEM) and then treated with F-RUT (1.25 or 2.5 μM) for another 24 h in the upper chamber of the transwell. Medium containing 10% FBS was placed in the lower chamber. At the end of incubation, non-migrated cells were removed using a cotton swab; cells that had penetrated to the opposite surface of the filter were fixed with 4% formaldehyde and stained with 2% crystal violet. Stained cells were counted and photographed under a phase-contract optical microscope at 200× magnification. Three independent experiments were performed as described elsewhere.
# [7] = tested on: A2780 cells; experiment: Wound-healing cell migration assay; assay type: cell-based; settings: 0-5 μM, 0-24 h, FIG. 3(a)
# Method: A2780 cells were cultured at a density of 2×10^5 cells/well in 6-well plates and incubated at 37° C. for 24 h. A centerline in the cells was scratched using a 200-μL pipette tip and washed with PBS. Then, new complete medium was added and treated with or without 1 and 2.5 μM of F-RUT for 24 h. At the endpoint of incubation, cells were examined and photographed with an optical microscope. The distance between the edges of the scratched area was measured and calculated to estimate the migratory ability of cells.
# As illustrated in FIG. 3(a), wound-healing assays used an ovarian carcinoma A2780 cell line in the presence of F-RUT (0-5 μM) for 0-24 h. The migration rate was measured using imaging software, and Student's t-test was used for the statistical analysis.
# [8] = tested on: COX-2; experiment: COX-2 enzyme activity
# [9] = tested on: zebrafish; experiment: LPS-induced ROS level in zebrafish; assay type: in vivo; settings: 5 ng/ml F-RUT, LPS 10 and 20 ng/ml, FIG. 7
# [10] = tested on: KLF10 KO mice; experiment: Lung inflammation and collagen formation in OVA/alum-challenged KLF10 KO mice; assay type: in vivo
# Method: (§4) BALB/c mice (six weeks of age) were obtained from the Animal Center of the College of Medicine, National Taiwan University (Taipei, Taiwan), and sensitized with an intraperitoneal injection of 20 μg of ovalbumin (OVA) emulsified in 2 mg of aluminum hydroxide in a total volume of 200 μL phosphate-buffered saline (PBS) on day 0, and boosted with 50 μg of OVA emulsified in 4 mg of aluminum hydroxide on days 14 and 28. RUT or F-RUT was given by oral administration on days 30, 32, 34, 36, and 38. For post-challenge, all mice were treated intranasally with OVA (100 μg in a total volume of 40 μL PBS) on days 40, 41, 42, and 43. At 24 h after the last OVA challenge, mice were sacrificed, and their organs were collected. All experimental procedures were reviewed and approved by the Institutional Animal Care and Use Committee or Panel. Lung tissues were fixed in 4% paraformaldehyde (sc-281692; Santa Biotechnology) and embedded in paraffin. Tissue sections were made at a 5-μm thickness, and stained with hematoxylin and eosin (H&E) solution for examination of inflammation.
# KLF10 gene is regulated by transforming growth factor (TGF)-β/Smad. Deletion of Klf10 in mice is associated with significant inflammation of the lungs challenged with OVA/alum for 44 days. In another experiment, KLF-10 KO mice was used. […]
# [11] = tested on: BALB/c mice; experiment: Lung inflammation in OVA/alum-challenged BALB/c mice; assay type: in vivo; settings: alternate-day oral administration, FIG. 5(a)
# Method: as §4
# [12] = tested on: TNF-α; experiment: TNF-α release by LPS-treated RAW264.7 macrophages (mouse TNF-α Quantikine kit); assay type: cell-based; settings: FIG. 1(b)
# Method: FIGS. 1A thru 1C show the effects of 10-fluoro-2-methoxyrutaecarpine (F-RUT) on nitric oxide (NO) and tumor necrosis factor (TNF)-α release by lipopolysaccharide (LPS)-treated (40 ng/mL) RAW264.7 macrophages: (a) NO levels were detected in culture medium using the Griess reaction; (b) TNF-α release in cell supernatants was detected using a mouse TNF-α Quantikine kit; (c) Cell viability upon F-RUT and rutaecarpine (RUT) treatment for 24 h in an MTT assay. Values are expressed as the mean±SE. *p<0.05, **p<0.01.
# (§5) NO production was evaluated by measuring the nitrite concentration in supernatants of cultured RAW264.7 macrophages. Cells were first seeded at a density of 2×10^5 cells/mL in 24-well plates for 24 h, followed by co-treatment with different concentrations of F-RUT with lipopolysaccharide (LPS) (40 ng/mL) for another 24 h. The amount of nitrite in cell culture supernatants was detected using the Griess reagent (1% sulfanilamide in 5% phosphoric acid and 0.1% naphthylethylenediamine dihydrochloride in water). Data are reported as the mean±standard error of the mean (SEM) values of three independent determinations.
# [13] = tested on: iNOS; experiment: iNOS protein expression in LPS-treated RAW264.7 macrophages (Western blot); assay type: cell-based; settings: FIG. 2(a)
# Method: as §1
# [14] = tested on: CL1-3; experiment: MTT cell viability assay, CL1-3; assay type: cell-based; settings: CL1-3 cells; 0-20 μM; 24 h; FIG. 1(c)
# Method: as §3
# [15] = tested on: COX-2; experiment: COX-2 protein expression in LPS-treated RAW264.7 macrophages (Western blot); assay type: cell-based; settings: FIG. 2(a)
# Method: as §1
# [16] = tested on: RAW264.7 macrophages; experiment: NO production (nitrite, Griess reagent) by LPS-treated RAW264.7 macrophages; assay type: cell-based; settings: LPS 40 ng/mL co-treatment 24 h; 0-20 μM; FIG. 1(a)
# Method: The RAW264.7 macrophage cell line and A2780 ovarian carcinoma cells were grown in Dulbecco's modified Eagle medium (DMEM) containing 10% fetal bovine serum (FBS), 100 U/mL penicillin, 100 μg/mL streptomycin, 1 mM sodium pyruvate, 4.5 g/L glucose, 4 mM 1-glutamine, and 1.5 g/L sodium bicarbonate at 37° C. in a humidified atmosphere with 5% CO2. Primary human aortic ECs (HAECs) were grown in a MesoEndo Endothelial Cell Growth Medium Kit (Cell Applications, San Diego, Calif., USA) supplemented with 10% FBS at 37° C. in a humidified atmosphere with 5% CO2.
# as §5
# [17] = tested on: H460; experiment: MTT cell viability assay, H460; assay type: cell-based; settings: H460 cells; 0-20 μM; 24 h; FIG. 1(c)
# Method: as §3
SMILES,increase of TRPV1 protein amounts compared to the control group [1],average thickness of blood-air-barrier [2] [nm],"cytotoxicity ([3]; RAW264.7 cells, 0-20 μM, 24 h, FIG. 1(c))",cytotoxicity compared to RUT ([3]; compared to RUT),LPS-induced NF-κB transcriptional activity [4],increase of phosphorylation of eNOS compared to the control group [5] [fold],cell invasion [6],cell migration [7],COX-2 enzyme activity [8],LPS-induced ROS level [9],"collagen formation around the bronchus ([10]; KLF10 KO mice, oral administration, 25% in OVA/Alum group, FIG. 5(c)) [%]","OVA/alum-induced lung inflammation ([10]; KLF-10 KO mice, alternate-day oral administration, FIG. 5(b))",OVA/alum-induced lung inflammation [11],TNF-α released into the medium [12],iNOS protein expression [13],cytotoxicity [14],COX-2 protein expression [15],NO production [16],cytotoxicity [17]
"COc1ccc2c(=O)n3c(nc2c1)-c1[nH]c2ccc(F)cc2c1CC3 [F-RUT, 10-fluoro-2-methoxyrutaecarpine]",two-fold,393,substantially no cytotoxicity,less cytotoxicity,inhibited LPS-induced NF-κB transcriptional activity,1.4,invasion inhibitory activity,significant effects against cell migration,the enzyme activity is also inhibited,suppressed the LPS-induced ROS,18,ameliorated the OVA/alum-induced lung inflammation,ameliorated the OVA/alum-induced lung inflammation,suppressive effect of TNF-α released into the medium,suppressed their expressions in a concentration-dependent manner,substantially no cytotoxicity,suppressed their expressions in a concentration-dependent manner,suppressed NO production in a concentration-dependent (0-20 μM) manner,substantially no cytotoxicity
"O=c1c2ccccc2nc2n1CCc1c-2[nH]c2ccccc12 [RUT, Rutaecarpine]",,418,,,,,,,,,,,,,,,,,
